Experimental data: paper PMC6515479, “An Investigation on Glucuronidation Metabolite Identification, Isozyme Contribution, and Species Differences of GL-V9 In Vitro and In Vivo” (Molecules, 2019)

Key:
[1] = cited from earlier work
[2] = test system: mouse liver microsomes (MiceLMs); experiment: Enzyme kinetics of GL-V9 glucuronidation in mouse liver microsomes (MiceLMs); format: in vitro ADME; settings: formation of 5-O-glucuronide GL-V9, protein 0.2 mg/mL, mean ± SD, n = 3
Experimental: (§1) The composition of the incubation system (200 μL) contained liver microsomes of different species (0.1 mg protein/mL), 5 mM saccharolactone (D-saccharic acid 1,4-lactone monohydrate), 10 mM MgCl2, alamethicin (50 μg/mg protein), Tris-HCl buffer (50 mM, pH 7.4) and GL-V9 (1 μM). After 5 min of preincubation at 37 °C, UDPGA (5 mM) was added to initiate the phase II reaction. Control incubation samples were performed without UDPGA or without substrates (GL-V9). The reaction was terminated by addition of ice-cold methanol (three volumes) after incubation for 1 h at 37 °C. Samples were vortexed, centrifuged at 21,500× g for 10 min and then stored at 4 °C until HPLC-UV-TripleTOF analysis. To confirm that these metabolites are conjugates resulting from glucuronidation reaction, enzymatic hydrolysis of samples was processed. β-glucuronidase (100 KU, Sigma) was added and the hydrolysis was performed overnight at 37 °C. The control samples were carried out without β-glucuronidase under the same condition.
(§2) Enzyme kinetics experiments were carried out in triplicate among five different species, including monkey, beagle dog, rat, mouse, and human. The reaction system and operations are as same as described in Section 4.3. The solutions of GL-V9 were selected over a range of concentrations (0.05, 0.2, 0.5, 1, 2, 5, 10, 20 μM). […]

[3] = as above; format: in vitro ADME; settings: mouse, liver microsomes, pH 7.4, formation of 5-O-glucuronide GL-V9, protein 0.2 mg/mL, mean ± SD, n = 3
Experimental: as §1, §2

rUGT2B4 = target: T1, rUGT2B4 (Homo sapiens, UniProt P06133); experiment: UGT phenotyping of GL-V9 glucuronidation, rUGT2B4; format: in vitro ADME; settings: GL-V9 0.5, 1, 5 μM, 37 °C, 1 h
T1 construct: purchased Corning (Woburn, MA, USA)
T1 sequence (P06133 24-528): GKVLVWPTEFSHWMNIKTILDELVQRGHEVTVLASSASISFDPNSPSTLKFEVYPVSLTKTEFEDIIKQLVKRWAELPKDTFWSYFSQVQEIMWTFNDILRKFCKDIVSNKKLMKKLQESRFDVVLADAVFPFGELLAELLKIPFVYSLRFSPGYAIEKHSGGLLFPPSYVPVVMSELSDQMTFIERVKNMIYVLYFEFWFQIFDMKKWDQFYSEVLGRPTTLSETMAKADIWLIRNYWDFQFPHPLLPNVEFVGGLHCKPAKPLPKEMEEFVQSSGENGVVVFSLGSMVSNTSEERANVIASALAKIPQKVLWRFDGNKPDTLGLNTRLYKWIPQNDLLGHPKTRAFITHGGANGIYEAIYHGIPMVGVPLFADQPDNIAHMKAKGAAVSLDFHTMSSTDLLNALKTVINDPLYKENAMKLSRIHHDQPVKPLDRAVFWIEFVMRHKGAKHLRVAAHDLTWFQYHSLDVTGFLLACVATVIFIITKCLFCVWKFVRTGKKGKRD
Experimental: as §1
(§3) Twelve human recombinant UGT isoforms (rUGT1A1, rUGT1A3, rUGT1A4, rUGT1A6, rUGT1A7, rUGT1A8, rUGT1A9, rUGT1A10, rUGT2B4, rUGT2B7, rUGT2B15, and rUGT2B17) were employed to identify the main UGT enzyme(s) responsible for glucuronidation of GL-V9 under mixture conditions as described in Section 4.3. […]

rUGT2B15 = target: T2, rUGT2B15 (Homo sapiens, UniProt P54855); experiment: UGT phenotyping of GL-V9 glucuronidation, rUGT2B15; format: in vitro ADME; settings: GL-V9 0.5, 1, 5 μM, 37 °C, 1 h
T2 construct: purchased Corning (Woburn, MA, USA)
T2 sequence (P54855 24-530): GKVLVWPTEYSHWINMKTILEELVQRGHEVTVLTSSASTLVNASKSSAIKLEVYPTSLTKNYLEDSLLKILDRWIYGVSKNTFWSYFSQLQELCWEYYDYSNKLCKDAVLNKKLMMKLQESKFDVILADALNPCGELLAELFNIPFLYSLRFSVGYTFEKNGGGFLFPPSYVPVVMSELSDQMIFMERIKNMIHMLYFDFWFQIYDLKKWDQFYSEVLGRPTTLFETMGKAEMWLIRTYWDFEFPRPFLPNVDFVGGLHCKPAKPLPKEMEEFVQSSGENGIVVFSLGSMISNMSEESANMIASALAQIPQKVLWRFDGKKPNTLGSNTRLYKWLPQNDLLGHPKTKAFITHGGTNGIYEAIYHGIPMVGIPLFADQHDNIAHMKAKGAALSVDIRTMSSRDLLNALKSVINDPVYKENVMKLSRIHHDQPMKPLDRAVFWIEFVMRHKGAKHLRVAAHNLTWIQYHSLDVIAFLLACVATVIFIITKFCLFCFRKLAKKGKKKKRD
Experimental: as §1, §3

[4] = GL-V9 in rat plasma, oral (gavage) GL-V9 50 mg/kg, n=6, mean ± SD
[5] = GL-V9 in rats, oral GL-V9 50 mg/kg, n=6, mean ± SD

COc1c(OCCCCN2CCCC2)cc(O)c2c(=O)cc(-c3ccccc3)oc12 [GL-V9]
AUC(0-t) [1, 4]: 1212.06 ± 246.47 ng·h/mL | Cmax [1, 4]: 167.33 ± 50.05 ng/mL | T1/2 [1, 4]: 3.08 ± 1.05 h | AUC(0-inf) ([1]; GL-V9 in rat plasma, oral GL-V9 50 mg/kg, n=6, mean ± SD): 1256.04 ± 271.82 ng·h/mL | Tmax ([1]; GL-V9 in rat plasma, oral GL-V9 50 mg/kg, n=6): 0.31 to 0.77 h | F ([1]; GL-V9 in rats, oral GL-V9 50 mg/kg): 8.54% | CL [1, 5]: 689.7 ± 147 mL/min/kg | MRT0-t [1, 5]: 7.70 ± 0.91 h | Vd [1, 5]: 181.06 ± 63.57 L/kg | Vmax [2]: 153.2 ± 10.44 pmol/min/mg | Km at 1 h [3]: 20.1 ± 1.04 µM | Catalytic activity in the production of 5-O-glucuronide GL-V9 (rUGT2B4): did not show apparent catalytic activity | Catalytic activity in the production of 5-O-glucuronide GL-V9 (rUGT2B15): did not show apparent catalytic activity
